# From patent publication US8802597B2, “Herbicidal pyrimidines” (E I du Pont de Nemours and Company, priority 2003, dated 2014)
# Key:
# [1] = tested on: daisy fleabane (Erigeron spp.); test: Test L field study, Compound 1 and nicosulfuron; type: in vivo; details: Nicosulfuron 18 g a.i./ha, approximately 56 days after treatment
# Description: (§1) This field study included treatments that consisted of Compound 1 and nicosulfuron alone and in combination on Canada thistle (Cirsium arvense) and daisy fleabane (Erigeron spp.). The plants ranged from 20 to 30 cm in height at the time of application during the month of May in the vicinity of Newark, Del. Compound 1 was formulated as a wettable powder containing 25% active ingredient by weight. Nicosulfuron was in the form of Accent® Herbicide, a water-dispersible granule formulation containing 75% active ingredient by weight. The formulations were dispersed in water in the sprayer tank before treatment. The treatments were made using a backpack sprayer calibrated to deliver 24 gallons per acre (224 L per hectare) to a 10 ft×30 ft (3 m×9 m) plot. Each treatment was replicated two times. The effects on the plants approximately 56 days after treatment were visually compared to untreated controls. Plant response ratings were calculated as the means of the two replicates, based on a scale of 0 to 100 where 0 is no effect and 100 is complete control. Colby's Equation was used to determine the herbicidal effects expected from the mixture.
# [2] = tested on: Canada thistle (Cirsium arvense); test: Test L field study, Compound 1 and nicosulfuron; type: in vivo; details: Nicosulfuron 18 g a.i./ha, approximately 56 days after treatment
# Description: as §1
smiles,measurement,setting,value
"COc1cc(OC)nc(NC(=O)NS(=O)(=O)c2ncccc2C(=O)N(C)C)n1 [Nicosulfuron, nicosulfuron, reference compound]",Obsd. observed effect (0 to 100 scale),[1],28
same,Obsd. observed effect (0 to 100 scale),[2],15
